From patent US8980571B2, “Method of identifying a candidate compound which may inhibit α9-nAchR overexpression or estrogen receptor-dependent transcription in nicotine-derived-compound-induced breast cancer cells” (Taipei Medical University, priority 2011, dated 2015)

Tests used:
ERK1/2 = assay: kinase competition assay, p-ERK1/2 immunoblotting in MCF-7 cells; format: cell-based, human; conditions: 25 μM pretreatment 30 min, then E2 10 nM 30 min
Experimental: After treatment, the cells were harvested for immunoblotting analysis. The p-ERα, total ER-α, and MAPK kinase proteins levels were detected by immunoblotting analysis.
For the kinase competition assays, the cells were treated with either 10 μM Ly294002, 25 μM PD98059, or 25 μM SP600125 (all from Tocris Cookson Inc., Ellisville, USA) before the treatment with nicotine or E2. All of the cell lines were grown in phenol red-free DMEM for 7 days before the experiments (Lewis, J. S., Thomas, T. J., Pestell, R. G., Albanese, C., Gallo, M. A., and Thomas, T. 2005. Differential effects of 16alpha-hydroxyestrone and 2-methoxyestradiol on cyclin D1 involving the transcription factor ATF-2 in MCF-7 breast cancer cells. J Mol Endocrinol 34:91-105). The DMEM medium used for these experiments contained 10% FBS that had been pretreated with dextran-coated charcoal (0.5% Norit A and 0.05% Dextran T-70) to avoid the effects of serum-derived estrogenic compounds.
Cell extracts were prepared as previously in Ho, Y. S., Lai, C. S., Liu, H. I., Ho, S. Y., Tai, C., Pan, M. H., and Wang, Y. J. 2007. Dihydrolipoic acid inhibits skin tumor promotion through anti-inflammation and anti-oxidation. Biochem Pharmacol 73:1786-1795. Fifty micrograms of protein from each sample were resolved by 12% SDS-polyacrylamide gel electrophoresis, transferred to PVDF and analyzed by western blotting. […]

p-Akt (Ser473) = assay: p-Akt immunoblotting analysis in MCF-7 cells; format: cell-based, human
Text: Both p-AKT and total (T)-AKT protein expression were detected by immunoblotting analysis. The membrane was then re-probed with a GAPDH antibody to ensure equal protein loading.
Both p-AKT and T-AKT protein expression were detected by immunoblotting analysis. The membrane was then re-probed with a GAPDH antibody to ensure equal protein loading.
Fifty micrograms of protein from each sample were resolved by 12% SDS-polyacrylamide gel electrophoresis, transferred to PVDF and analyzed by western blotting. The antibodies employed for the western blotting analysis were purchased from the following vendors: anti-Akt, anti-JNK, anti-phospho JNK, anti-estrogen receptor a (anti-ERα), anti-c-Fos, anti-ERK1/2, anti-phospho ERK1/2, and protein A/G agarose beads were purchased from Santa Cruz Biotechnology (Santa Cruz, Calif., USA); anti-GAPDH, anti-α9-nAChR, and anti-phospho ERα (Ser^167) antibodies were obtained from ABcam (Cambridge, UK); anti-phospho Akt (Ser^473, Thr^308), anti-phospho c-Jun (Ser^73), anti-phospho ERα (Ser^118), and anti-phospho ERα (Ser^104/106) antibodies were purchased from Cell Signaling Technology (Danvers, Mass.). Immunodetection was performed by probing membranes with the appropriate dilutions of specific primary antibodies at room temperature for 2 h. The membranes were then incubated at room temperature for 1 h with either alkaline phosphatase-coupled anti-mouse or anti-rabbit secondary antibodies that were purchased from Santa Cruz Biotechnology. The specific protein complexes were identified by incubating the membranes with colorigenic substrates (nitroblue tetrazolium and 5-bromo-4-chloro-3indolyl-phosphate; KPL, Inc., Gaithersburg, Md., USA). In each experiment, the membranes were also probed with an anti-GAPDH antibody as a protein loading control.

[1] = cited from earlier work
α9-nAChR promoter = assay: luciferase activity assay, pGL3(α9-nAChR) promoter constructs in MCF-7 cells; format: cell-based, human
Experimental: (§1) Cell lysates were harvested, and relative firefly luciferase activities were measured and normalized to renilla luciferase activities in the same cell lysates. […] The luciferase activity was assayed and normalized to the pRL-TK expression as described above. […] The data were analyzed using nonparametric tests; all P-values are two-sided.
All of the α9-nAChR promoter-luciferase gene fusions were constructed using a pGL3-Basic vector (Promega), and suitable α9 promoter fragments were introduced into the polylinker region of the vector, upstream of the luciferase gene. These constructs were defined as pGL3(α9-nAChR). The fragments were generated using restriction enzymes and were either cloned directly into a pGL3-Basic vector or first subcloned in a pBluescript vector and then transferred into a pGL3-Basic vector.
MCF-7 cells were plated in six-well plates and incubated overnight. The following day, the cells were transiently cotransfected with 2 μg of pGL3 (α9-nAChR) promoter plasmid and 500 ng of RLTK plasmid (Promega, Madison, Wis.) using a MP-100 microporator (Digital Bio, Seoul, Korea) according to the manufacturer's instructions. […] Twenty-four hours later, the cells were lysed with 19 Reporter Lysis Buffer (Promega, Madison, Wis.) and stored at −20° C. overnight. Luciferase activity was then determined by mixing 50 µl of the cell lysate and 50 μl of the Luciferase Assay Reagent (Promega). The total luciferase light units were quantified using a HIDEX Chameleon Microplate Reader. The relative luciferase activity was normalized to that of renilla luciferase in the same cell lysates. Each luciferase assay experiment was performed three times. In this study, the luciferase activity observed in cells transfected with the empty vector was defined as a one-fold change (i.e., basal level).
To more precisely define the regulatory elements that are required by the α9-nAChR promoter for ER-induced transcriptional activation, transient-transfection experiments were conducted using a series of 5′ promoter deletion constructs in pGL3 vectors that were transfected into MCF-7 cells. […]

AP1 DNA-binding sites = conditions: nicotine 0.1-10 μM, 6 h, pGL3(AP1)5, MCF-7
Experimental: as §1
MCF-7 cells were plated in six-well plates and incubated overnight. The following day, the cells were transiently cotransfected with 2 μg of pGL3 (α9-nAChR) promoter plasmid and 500 ng of RLTK plasmid (Promega, Madison, Wis.) using a MP-100 microporator (Digital Bio, Seoul, Korea) according to the manufacturer's instructions. […] Twenty-four hours later, the cells were lysed with 19 Reporter Lysis Buffer (Promega, Madison, Wis.) and stored at −20° C. overnight. Luciferase activity was then determined by mixing 50 µl of the cell lysate and 50 μl of the Luciferase Assay Reagent (Promega). The total luciferase light units were quantified using a HIDEX Chameleon Microplate Reader. The relative luciferase activity was normalized to that of renilla luciferase in the same cell lysates. Each luciferase assay experiment was performed three times. In this study, the luciferase activity observed in cells transfected with the empty vector was defined as a one-fold change (i.e., basal level). […]

α9-nAChR = α9-nAChR mRNA and protein expression by RT-PCR and immunoblotting in MCF-7 cells; format: cell-based, human; conditions: nicotine 10 μM, 6 h post-treatment
Experimental: After treatment, the cells were harvested, and α9-nAChR mRNA and protein expression levels were determined by RT-PCR and immunoblotting analyses.
Primers specific for the α9-nAChR subunit (forward: 5′-[sequence]-3 (SEQ ID NO:18)′ and reverse: 5′-[sequence]-3 (SEQ ID NO:19)′) were synthesized by MB Mission BioTech (Taipei, Taiwan). The PCR amplicons were analyzed in 1.2% agarose gels (Amresco, Inc, Solon, Ohio, USA) that were stained with ethidium bromide. […] The α9-nAChR mRNA fluorescence intensity was measured and normalized to GUS expression levels using the built-in Roche LightCycler software (version 4).

| SMILES | effect on E2-induced increase in p-ERK1/2 protein levels (ERK1/2) | effect of combined treatment on E2-induced Akt (Ser473) phosphorylation (p-Akt (Ser473); nicotine 5 μM + E2 5 nM, 15 min, MCF-7) | time to significantly increased p-Akt (Ser473) expression (p-Akt (Ser473); nicotine 10 μM, MCF-7) [min] | p-Akt (Ser473) expression for the duration of the experiment (p-Akt (Ser473); nicotine 10 μM, MCF-7, time course) | minimum concentration required for p-Akt (Ser473) induction (p-Akt (Ser473); within 15 min, MCF-7) [µM] | nicotine absorbed systemically while smoking a cigarette ([1]; in vivo) | nicotine concentration in the gastric juice ([1]; in vivo) [ng/mL] | nicotine concentration in the plasma ([1]; in vivo) | nicotine concentration in the saliva ([1]; in vivo) [ng/mL] | share of inhaled nicotine absorbed by the body ([1]; studies using 14C-nicotine) | induced responsiveness of promoter with positions -995 to -260 deleted (α9-nAChR promoter; E2 10 nM or nicotine 10 μM) | nicotine-induced luciferase activity with promoter positions -41 to -1 deleted (α9-nAChR promoter; nicotine 10 μM) | induction of α9-nAChR promoter activity (luciferase), full-length construct (α9-nAChR promoter; nicotine 10 μM, 24 h, empty vector = one-fold) | AP1-linked luciferase activity (AP1 DNA-binding sites) | α9-nAChR mRNA and protein expression levels (α9-nAChR) |
| --- | --- | --- | --- | --- | --- | --- | --- | --- | --- | --- | --- | --- | --- | --- | --- |
| COc1cccc(-c2cc(=O)c3ccccc3o2)c1N [PD98059] | almost completely abolished | – | – | – | – | – | – | – | – | – | – | – | – | – | – |
| CN1CCCC1c1cccnc1 (stereo not drawn) [nicotine] | – | enhanced | ≤ 10 | persistent increase | 5 | roughly 1.0 mg | > 800 | approximately 15 ng/ml | > 1300 | 80-90% | preserved | abolished | greater than fourfold | increased the AP1-linked luciferase activity in a dose-dependent manner | significantly induced |
